Assay results published in PMC7558399, “In Vitro Selective Growth-Inhibitory Activities of Phytochemicals, Synthetic Phytochemical Analogs, and Antibiotics against Diarrheagenic/Probiotic Bacteria and Cancer/Normal Intestinal Cells” (Pharmaceuticals, 2020).
≈ marks a conversion by molar mass, not a printed value. Read-outs that look alike come from different tables or passages of the source.

Assays:
Format in all cases: cell-based
[1] = test system: Salmonella enterica ssp. enterica serovar Enteritidis (ATCC 13076); assay: Broth microdilution MIC, Salmonella Enteritidis; conditions: Salmonella Enteritidis, growth inhibited by ≥80%, read-out: MIC
[2] = test system: probiotic bacteria (9 strains); assay: Broth microdilution MIC, probiotic bacteria as a group (mean or range over strains)
[3] = test system: Bifidobacterium breve (ATCC 15700); assay: Broth microdilution MIC, B. breve; conditions: ATCC15700, growth inhibited by ≥80%, read-out: MIC
[4] = test system: Vibrio parahaemolyticus (ATCC 17802); assay: Broth microdilution MIC, V. parahaemolyticus; conditions: ATCC17802, growth inhibited by ≥80%, read-out: MIC
[5] = test system: HT29 (ATCC HTB 38) intestinal cancer cells; assay: MTT cytotoxicity assay, HT29; conditions: Homo sapiens, HT-29, HT29, MTT, 72 h; for IC50: read-out: IC50 ± SD; for IC80: read-out: IC80 ± SD (80% inhibitory concentration of proliferation)
[6] = test system: S. enterica ssp. enterica serovar Typhimurium (ATCC 14028); assay: Broth microdilution MIC, Salmonella Typhimurium; conditions: Salmonella Typhimurium, growth inhibited by ≥80%, read-out: MIC
[7] = test system: Lactobacillus reuteri (CCM 3625); assay: Broth microdilution MIC, L. reuteri; conditions: Limosilactobacillus reuteri, CCM3625; Lactobacillus reuteri; growth inhibited by ≥80%; read-out: MIC
[8] = test system: Clostridium perfringens (DSMZ 11778); assay: microbe, parasite or virus in culture; conditions: DSMZ11778
[9] = test system: Shigella flexneri (ATCC 12022); assay: microbe, parasite or virus in culture; conditions: ATCC12022
[10] = test system: Caco-2 (ATCC HTB 37) intestinal cancer cells; assay: MTT cytotoxicity assay, Caco-2; conditions: Homo sapiens, Caco-2, MTT, 72 h; for IC50: read-out: IC50 ± SD; for IC80: read-out: IC80 ± SD (80% inhibitory concentration of proliferation)
[11] = test system: Listeria monocytogenes (ATCC 7644); assay: Broth microdilution MIC, L. monocytogenes; conditions: ATCC7644, growth inhibited by ≥80%, read-out: MIC
[12] = test system: E. coli 0175:H7 (NCTC 12900); assay: microbe, parasite or virus in culture; conditions: Escherichia coli, NCTC12900
[13] = test system: Bifidobacterium animalis spp. lactis (DSMZ 10140); assay: Broth microdilution MIC, B. animalis spp. lactis; conditions: DSMZ10140; Bifidobacterium animalis spp. lactis; growth inhibited by ≥80%; read-out: MIC
[14] = test system: Bacillus cereus (ATCC 14579); assay: Broth microdilution MIC, B. cereus; conditions: median/mode, read-out: MIC
[15] = test system: Lactobacillus casei (DSMZ 20011); assay: Broth microdilution MIC, L. casei; conditions: Lacticaseibacillus casei, DSMZ20011; Lactobacillus casei; growth inhibited by ≥80%; read-out: MIC
[16] = test system: Yersinia enterocolitica (ATCC 9610); assay: Broth microdilution MIC, Y. enterocolitica; conditions: ATCC9610, growth inhibited by ≥80%, read-out: MIC
[17] = test system: intestinal cancer cells (HT29 and Caco-2); assay: MTT cytotoxicity assay, mean for intestinal cancer cells; conditions: for IC50: mean of HT29 and Caco-2, >512 replaced with 1024, read-out: x¯ -CC ± SD: mean IC50 for intestinal cancer cells; for IC80: read-out: x¯ -CC ± SD: mean IC80 for intestinal cancer cells
[18] = test system: Clostridium difficile (DSMZ 12056); assay: microbe, parasite or virus in culture; conditions: Clostridioides difficile, DSMZ12056; Clostridium difficile; […]; read-out: MIC
[19] = test system: Bifidobacterium bifidum (ATCC 29521); assay: Broth microdilution MIC, B. bifidum; conditions: ATCC29521, growth inhibited by ≥80%, read-out: MIC
[20] = test system: diarrheagenic bacteria (12 strains); assay: organism not typed
[21] = test system: Lactobacillus rhamnosus (CCM 7091); assay: Broth microdilution MIC, L. rhamnosus; conditions: Lacticaseibacillus rhamnosus, CCM7091; Lactobacillus rhamnosus; growth inhibited by ≥80%; read-out: MIC
[22] = test system: Bifidobacterium adolescentis (DSMZ 20087); assay: Broth microdilution MIC, B. adolescentis; conditions: DSMZ20087, growth inhibited by ≥80%, read-out: MIC
[23] = test system: Escherichia coli (ATCC 25922); assay: Broth microdilution MIC, E. coli; conditions: ATCC25922, growth inhibited by ≥80%, read-out: MIC
[24] = test system: Enterococcus faecalis (ATCC 29212); assay: Broth microdilution MIC, E. faecalis; conditions: ATCC29212, growth inhibited by ≥80%, read-out: MIC
[25] = test system: FHs 74 Int (ATCC CCL 241) intestinal normal cells; assay: MTT cytotoxicity assay, FHs 74 Int; conditions: FHs 74 Int (intestinal normal cells), MTT, 72 h; for IC50 / IC80: FHs74Int; for IC50: read-out: IC50 ± SD; for IC80: read-out: IC80 ± SD (80% inhibitory concentration of proliferation)
[26] = test system: Bifidobacterium longum ssp. longum (DSMZ 20219); assay: Broth microdilution MIC, B. longum ssp. longum; conditions: DSMZ20219; Bifidobacterium longum ssp. longum; growth inhibited by ≥80%; read-out: MIC
[27] = test system: Bacteroides fragilis (ATCC 25285); assay: Broth microdilution MIC, B. fragilis
[28] = mean of 9 strains, >512 replaced with 1024, read-out: x¯ -PB ± SD: mean MIC for probiotic bacteria
[29] = mean of 12 strains, >512 replaced with 1024, read-out: x¯ -DB ± SD: mean MIC for diarrheagenic bacteria

Row | SMILES | MIC [1] [µg/mL] | MIC [2, 28] [µg/mL] | MIC [3] [µg/mL] | MIC [4] [µg/mL] | IC50 [5] [µg/mL] | IC80 [5] [µg/mL] | MIC [6] [µg/mL] | MIC [7] [µg/mL] | MIC [8] [µg/mL] | MIC [9] [µg/mL] | IC50 [10] [µg/mL] | IC80 [10] [µg/mL] | MIC [11] [µg/mL] | MIC [12] [µg/mL] | MIC [13] [µg/mL] | MIC [15] [µg/mL] | MIC [16] [µg/mL] | IC50 [17] [µg/mL] | IC80 [17] [µg/mL] | MIC [18] [µg/mL] | also measured
1 | O=C(N[C@H](CO)[C@H](O)c1ccc([N+](=O)[O-])cc1)C(Cl)Cl [CA, chloramphenicol] | 4 (≈ 12.4 µM) | 6.2 ± 4 (≈ 19.2 µM) | 4 (≈ 12.4 µM) | 2 (≈ 6.19 µM) | 271.1 ± 1 (≈ 839 µM) | > 512 | 8 (≈ 24.8 µM) | 8 (≈ 24.8 µM) | 4 (≈ 12.4 µM) | 4 (≈ 12.4 µM) | 439.3 ± 4 (≈ 1360 µM) | > 512 | 8 (≈ 24.8 µM) | 8 (≈ 24.8 µM) | 4 (≈ 12.4 µM) | 16 (≈ 49.5 µM) | 16 (≈ 49.5 µM) | 355 ± 84 (≈ 1100 µM) | > 512 | 4 (≈ 12.4 µM) | MIC ([2]; bifidobacteria, range over strains, read-out: MICs): 2 to 4 µg/mL (≈ 6.19 to 12.4 µM); MIC ([14]; ATCC14579, growth inhibited by ≥80%): 8 µg/mL (≈ 24.8 µM); MIC [19]: 4 µg/mL (≈ 12.4 µM); MIC ([20]; at least half of the diarrheagenic bacteria, read-out: MICs): 1 to 4 µg/mL (≈ 3.09 to 12.4 µM); MIC [20, 29]: 16.5 ± 34 µg/mL (≈ 51.1 µM); MIC [21]: 8 µg/mL (≈ 24.8 µM); MIC [22]: 4 µg/mL (≈ 12.4 µM); MIC [23]: 4 µg/mL (≈ 12.4 µM); MIC [24]: 128 µg/mL (≈ 396 µM); IC80 ± SD (80% inhibitory concentration of proliferation) [25]: - (Not active (MIC/IC50/80 > 512 μg/mL, the value 1024 μg/mL was used for average calculation)); IC50 [25]: 30.7 ± 5.6 µg/mL (≈ 95 µM); IC80 [25]: > 512 µg/mL; MIC [26]: 4 µg/mL (≈ 12.4 µM); MIC ([27]; ATCC25285, growth inhibited by ≥80%, read-out: MIC): 4 µg/mL (≈ 12.4 µM)
2 | CO/N=C(\C(=O)N[C@@H]1C(=O)N2C(C(=O)O)=C(CSc3nc(=O)c(=O)[nH]n3C)CS[C@H]12)c1csc(N)n1 [CF, ceftriaxone sodium] | 0.25 | 26.6 ± 38 | 32 | 0.125 | > 512 | > 512 | 0.25 | 0.5 | 4 | 0.5 | > 512 | > 512 | 32 | 0.5 | 2 | 32 | 0.25 | > 512 | > 512 | 64 | MIC ([2]; Bifidobacterium breve and Bifidobacterium longum ssp. longum, read-out: MICs): 8 to 32 µg/mL; MIC ([2]; lactobacilli, range over strains, read-out: MICs): 0.5 to 32 µg/mL; MIC ([2]; remaining bifidobacteria (other than B. breve and B. longum ssp. longum), read-out: MICs): 1 to 4 µg/mL; MIC ([14]; ATCC14579, […]): 128 µg/mL; MIC [19]: 4 µg/mL; MIC ([20]; all gram-negative diarrheagenic bacteria, range over strains, read-out: MICs): 0.062 to 0.5 µg/mL; MIC ([20]; gram-positive pathogens, range over strains, read-out: MICs): 4 to 512 µg/mL; MIC [20, 29]: 61.8 ± 141 µg/mL; MIC [21]: 32 µg/mL; MIC [22]: 1 µg/mL; MIC [23]: 0.062 µg/mL; MIC [24]: 512 µg/mL; IC50 ± SD [25]: - (Not active (MIC/IC50/80 > 512 μg/mL, the value 1024 μg/mL was used for average calculation)); IC80 ± SD (80% inhibitory concentration of proliferation) [25]: - (Not active (MIC/IC50/80 > 512 μg/mL, the value 1024 μg/mL was used for average calculation)); IC50 [25]: > 512 µg/mL; IC80 [25]: > 512 µg/mL; MIC [26]: 8 µg/mL; MIC ([27]; ATCC25285): 128 µg/mL
